Laboratory results published in the supplement of paper PMC10307832.

Key:
Assay in all cases: relative viability (nuclei count vs DMSO), 5 days (fraction); higher = more cells survive
[1] = compound: C1=CC(=CC=C1C2=CC(=C(S2)NC(=O)N)C(=O)N)F [TPCA-1] + Cc1nc(Nc2ncc(C(=O)Nc3c(C)cccc3Cl)s2)cc(N2CCN(CCO)CC2)n1 [Dasatinib] (partner 0.075 µM)
How it was run: (§1)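 A single step with final 0.05% Triton X-100, 1% formaldehyde and 1 ug/ml Hoechst fixed the cells and stained nuclei 5 days after treatment. Lung cancer cell lines in 1536-well plates had been treated by pin tool the day after seeding with one drug alone or a fixed anchor-drug dose plus five library-drug doses (not always all listed) in √10 steps, and nuclei were counted on 4× images. Relative viability is the ratio of nuclei in treated wells to nuclei in vehicle wells, taken as the median of duplicate plates.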

[2] = compound: C[C@]12O[C@H](C[C@]1(O)CO)n1c3ccccc3c3c4c(c5c6ccccc6n2c5c31)CNC4=O [Lestaurtinib] + CC(=O)Nc1cccc(-n2c(=O)n(C3CC3)c(=O)c3c(Nc4ccc(I)cc4F)n(C)c(=O)c(C)c32)c1 [Trametinib] (partner 0.02 µM)
How it was run: as §1

[3] = compound: C1/C(=C\C2=CC=CS2)/C(=O)/C(=C/C3=CC=CS3)/C1 + Nc1ncn([C@H]2C[C@H](O)[C@@H](CO)O2)c(=O)n1 [Decitabine] (partner 2 µM)
How it was run: as §1

[4] = compound: C[C@]12O[C@H](C[C@]1(O)CO)n1c3ccccc3c3c4c(c5c6ccccc6n2c5c31)CNC4=O [Lestaurtinib] + CC(C)C[C@H](NC(=O)[C@H](Cc1ccccc1)NC(=O)c1cnccn1)B(O)O [Bortezomib] (partner 0.002 µM)
How it was run: as §1

HCC-15
relative viability ([1]; first compound 0.04 µM): 0.735
relative viability ([1]; first compound 0.1265 µM): 0.495
relative viability ([1]; first compound 0.4 µM): 0.592
relative viability ([1]; first compound 1.265 µM): 0.523
relative viability ([1]; first compound 4 µM): 0.392
relative viability ([2]; first compound 0.005 µM): 0.405
relative viability ([2]; first compound 0.01581 µM): 0.409
relative viability ([2]; first compound 0.05 µM): 0.306
relative viability ([2]; first compound 0.1581 µM): 0.364
relative viability ([2]; first compound 0.5 µM): 0.189
relative viability ([3]; first compound 0.2 µM): 0.677
relative viability ([3]; first compound 0.6325 µM): 0.688
relative viability ([3]; first compound 2 µM): 0.661
relative viability ([3]; first compound 6.325 µM): 0.619
relative viability ([3]; first compound 20 µM): 0.609
relative viability ([4]; first compound 0.005 µM): 1.04
relative viability ([4]; first compound 0.01581 µM): 1.28
relative viability ([4]; first compound 0.05 µM): 0.868
relative viability ([4]; first compound 0.1581 µM): 0.868
relative viability ([4]; first compound 0.5 µM): 0.194

LCLC-103H
relative viability ([1]; first compound 0.04 µM): 0.518
relative viability ([1]; first compound 0.1265 µM): 0.447
relative viability ([1]; first compound 0.4 µM): 0.481
relative viability ([1]; first compound 1.265 µM): 0.397
relative viability ([1]; first compound 4 µM): 0.465
relative viability ([2]; first compound 0.005 µM): 0.717
relative viability ([2]; first compound 0.01581 µM): 0.741
relative viability ([2]; first compound 0.05 µM): 0.609
relative viability ([2]; first compound 0.1581 µM): 0.592
relative viability ([2]; first compound 0.5 µM): 0.678
relative viability ([3]; first compound 0.2 µM): 0.803
relative viability ([3]; first compound 0.6325 µM): 0.747
relative viability ([3]; first compound 2 µM): 0.77
relative viability ([3]; first compound 6.325 µM): 0.554
relative viability ([3]; first compound 20 µM): 0.742
relative viability ([4]; first compound 0.005 µM): 1.09
relative viability ([4]; first compound 0.01581 µM): 1.07
relative viability ([4]; first compound 0.05 µM): 0.943
relative viability ([4]; first compound 0.1581 µM): 0.908
relative viability ([4]; first compound 0.5 µM): 0.56

NCI-H23
relative viability ([1]; first compound 0.04 µM): 1.04
relative viability ([1]; first compound 0.1265 µM): 0.711
relative viability ([1]; first compound 0.4 µM): 0.879
relative viability ([1]; first compound 1.265 µM): 0.758
relative viability ([1]; first compound 4 µM): 0.402
relative viability ([2]; first compound 0.005 µM): 0.377
relative viability ([2]; first compound 0.01581 µM): 0.455
relative viability ([2]; first compound 0.05 µM): 0.35
relative viability ([2]; first compound 0.1581 µM): 0.408
relative viability ([2]; first compound 0.5 µM): 0.225
relative viability ([3]; first compound 0.2 µM): 0.32
relative viability ([3]; first compound 0.6325 µM): 0.293
relative viability ([3]; first compound 2 µM): 0.314
relative viability ([3]; first compound 6.325 µM): 0.34
relative viability ([3]; first compound 20 µM): 0.285
relative viability ([4]; first compound 0.005 µM): 0.904
relative viability ([4]; first compound 0.01581 µM): 1.04
relative viability ([4]; first compound 0.05 µM): 0.642
relative viability ([4]; first compound 0.1581 µM): 1.1
relative viability ([4]; first compound 0.5 µM): 0.255

NCI-H1792
relative viability ([1]; first compound 0.04 µM): 0.8
relative viability ([1]; first compound 0.1265 µM): 0.715
relative viability ([1]; first compound 0.4 µM): 0.765
relative viability ([1]; first compound 1.265 µM): 0.678
relative viability ([1]; first compound 4 µM): 0.624
relative viability ([2]; first compound 0.005 µM): 0.429
relative viability ([2]; first compound 0.01581 µM): 0.516
relative viability ([2]; first compound 0.05 µM): 0.339
relative viability ([2]; first compound 0.1581 µM): 0.386
relative viability ([2]; first compound 0.5 µM): 0.244
relative viability ([3]; first compound 0.2 µM): 0.642
relative viability ([3]; first compound 0.6325 µM): 0.519
relative viability ([3]; first compound 2 µM): 0.561
relative viability ([3]; first compound 6.325 µM): 0.495
relative viability ([3]; first compound 20 µM): 0.496
relative viability ([4]; first compound 0.005 µM): 1.29
relative viability ([4]; first compound 0.01581 µM): 1.08
relative viability ([4]; first compound 0.05 µM): 0.5
relative viability ([4]; first compound 0.1581 µM): 1.07
relative viability ([4]; first compound 0.5 µM): 0.437

NCI-H596
relative viability ([1]; first compound 0.04 µM): 0.661
relative viability ([1]; first compound 0.1265 µM): 0.559
relative viability ([1]; first compound 0.4 µM): 0.599
relative viability ([1]; first compound 1.265 µM): 0.597
relative viability ([1]; first compound 4 µM): 0.763
relative viability ([2]; first compound 0.005 µM): 0.691
relative viability ([2]; first compound 0.01581 µM): 0.842
relative viability ([2]; first compound 0.05 µM): 0.848
relative viability ([2]; first compound 0.1581 µM): 0.993
relative viability ([2]; first compound 0.5 µM): 0.845
relative viability ([3]; first compound 0.2 µM): 1.04
relative viability ([3]; first compound 0.6325 µM): 1.13
relative viability ([3]; first compound 2 µM): 0.992
relative viability ([3]; first compound 6.325 µM): 1.05
relative viability ([3]; first compound 20 µM): 1.02
relative viability ([4]; first compound 0.005 µM): 1.16
relative viability ([4]; first compound 0.01581 µM): 1.28
relative viability ([4]; first compound 0.05 µM): 0.969
relative viability ([4]; first compound 0.1581 µM): 1.29
relative viability ([4]; first compound 0.5 µM): 1.06

NCI-H460
relative viability ([1]; first compound 0.04 µM): 0.707
relative viability ([1]; first compound 0.1265 µM): 0.421
relative viability ([1]; first compound 0.4 µM): 0.496
relative viability ([1]; first compound 1.265 µM): 0.465
relative viability ([1]; first compound 4 µM): 0.361
relative viability ([2]; first compound 0.005 µM): 0.237
relative viability ([2]; first compound 0.01581 µM): 0.201
relative viability ([2]; first compound 0.05 µM): 0.144
relative viability ([2]; first compound 0.1581 µM): 0.142
relative viability ([2]; first compound 0.5 µM): 0.0705
relative viability ([3]; first compound 0.2 µM): 0.454
relative viability ([3]; first compound 0.6325 µM): 0.548
relative viability ([3]; first compound 2 µM): 0.481
relative viability ([3]; first compound 6.325 µM): 0.473
relative viability ([3]; first compound 20 µM): 0.449
relative viability ([4]; first compound 0.005 µM): 1.08
relative viability ([4]; first compound 0.01581 µM): 1.35
relative viability ([4]; first compound 0.05 µM): 0.926
relative viability ([4]; first compound 0.1581 µM): 1.44
relative viability ([4]; first compound 0.5 µM): 0.84

HCC-366
relative viability ([1]; first compound 0.04 µM): 0.729
relative viability ([1]; first compound 0.1265 µM): 0.55
relative viability ([1]; first compound 0.4 µM): 0.664
relative viability ([1]; first compound 1.265 µM): 0.539
relative viability ([1]; first compound 4 µM): 0.233
relative viability ([2]; first compound 0.005 µM): 0.365
relative viability ([2]; first compound 0.01581 µM): 0.489
relative viability ([2]; first compound 0.05 µM): 0.399
relative viability ([2]; first compound 0.1581 µM): 0.342
relative viability ([2]; first compound 0.5 µM): 0.149
relative viability ([3]; first compound 0.2 µM): 0.296
relative viability ([3]; first compound 0.6325 µM): 0.329
relative viability ([3]; first compound 2 µM): 0.341
relative viability ([3]; first compound 6.325 µM): 0.369
relative viability ([3]; first compound 20 µM): 0.336
relative viability ([4]; first compound 0.005 µM): 1.13
relative viability ([4]; first compound 0.01581 µM): 1.11
relative viability ([4]; first compound 0.05 µM): 0.565
relative viability ([4]; first compound 0.1581 µM): 1.05
relative viability ([4]; first compound 0.5 µM): 0.43
